# Measurements from PubChem BioAssay AID2060352 (Molecular Pharmacology Branch, DTP, NCI, 2025).
# Where “and” joins values, the source holds several entries; their conditions need not be identical. Equal entries are not always repeated.
# Test system: 616215-338-R-J1-PDC spheroid with HUVEC/MSC, viability
# Assay: Anticancer human tumor 616215-338-R-J1-PDC patient-derived colon adenocarcinoma cell line growth inhibition [TAK]
# Conditions: for viability, T/C: stronger effect = lower value
# Summary of the method: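 Drug combinations, each paired with TAK-243 or ipatasertib, were tested on multi-cell spheroids of 60% malignant cells, 25% HUVEC and 15% hMSC. Top concentrations were at or near the clinical Cmax (10 microM if undetermined), decreasing by half-log; viability is given as % test/control.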
# [1] = curve of first compound, second compound 0.3 µM
# [2] = curve of first compound, second compound 0.949 µM
# [3] = curve of first compound, second compound 3 µM
# [4] = curve of first compound, second compound 9.49 µM
# [5] = curve of first compound, second compound 30 µM
# [6] = second compound 0.3 µM, first compound 0.316 µM
# [7] = second compound 0.3 µM, first compound 1 µM
# [8] = second compound 0.3 µM, first compound 3.16 µM
# [9] = second compound 0.3 µM, first compound 10 µM
# [10] = second compound 0.949 µM, first compound 0.316 µM
# [11] = second compound 0.949 µM, first compound 1 µM
# [12] = second compound 0.949 µM, first compound 3.16 µM
# [13] = second compound 0.949 µM, first compound 10 µM
# [14] = second compound 3 µM, first compound 0.316 µM
# [15] = second compound 3 µM, first compound 1 µM
# [16] = second compound 3 µM, first compound 3.16 µM
# [17] = second compound 3 µM, first compound 10 µM
# [18] = second compound 9.49 µM, first compound 0.316 µM
# [19] = second compound 9.49 µM, first compound 1 µM
# [20] = second compound 9.49 µM, first compound 3.16 µM
# [21] = second compound 9.49 µM, first compound 10 µM
# [22] = second compound 30 µM, first compound 0.316 µM
# [23] = second compound 30 µM, first compound 1 µM
# [24] = second compound 30 µM, first compound 3.16 µM
# [25] = second compound 30 µM, first compound 10 µM
# 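Also: spheroids exposed to drugs for 7 days before readout.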
structure (smiles),measurement,setting,value
CC(=O)Nc1cccc(-n2c(=O)n(C3CC3)c(=O)c3c(Nc4ccc(I)cc4F)n(C)c(=O)c(C)c32)c1 + CC(C)NCC(C(=O)N1CCN(c2ncnc3c2C(C)CC3O)CC1)c1ccc(Cl)cc1,IC50,[1],4.61 nM
same,IC50,[2],1.65 nM
same,IC50,[3],0.213 nM
same,IC50,[4],< 0.0949 nM
same,IC50,[5],< 0.0949 nM
same,"viability, T/C","second compound 0.3 µM, first compound 94.9 pM",131%
same,"viability, T/C","second compound 0.3 µM, first compound 0.0003 µM",132%
same,"viability, T/C","second compound 0.3 µM, first compound 0.000949 µM",125%
same,"viability, T/C","second compound 0.3 µM, first compound 0.003 µM",69.9%
same,"viability, T/C","second compound 0.3 µM, first compound 0.00949 µM",16.6%
same,"viability, T/C","second compound 0.3 µM, first compound 0.03 µM",3.1%
same,"viability, T/C","second compound 0.949 µM, first compound 94.9 pM",134%
same,"viability, T/C","second compound 0.949 µM, first compound 0.0003 µM",130%
same,"viability, T/C","second compound 0.949 µM, first compound 0.000949 µM",69.7%
same,"viability, T/C","second compound 0.949 µM, first compound 0.003 µM",28.1%
same,"viability, T/C","second compound 0.949 µM, first compound 0.00949 µM",9.36%
same,"viability, T/C","second compound 0.949 µM, first compound 0.03 µM",1.03%
same,"viability, T/C","second compound 3 µM, first compound 94.9 pM",57.9%
same,"viability, T/C","second compound 3 µM, first compound 0.0003 µM",47.6%
same,"viability, T/C","second compound 3 µM, first compound 0.000949 µM",25.3%
same,"viability, T/C","second compound 3 µM, first compound 0.003 µM",11.9%
same,"viability, T/C","second compound 3 µM, first compound 0.00949 µM",4.2%
same,"viability, T/C","second compound 3 µM, first compound 0.03 µM",0.83%
same,"viability, T/C","second compound 9.49 µM, first compound 94.9 pM",22%
same,"viability, T/C","second compound 9.49 µM, first compound 0.0003 µM",18.4%
same,"viability, T/C","second compound 9.49 µM, first compound 0.000949 µM",12.3%
same,"viability, T/C","second compound 9.49 µM, first compound 0.003 µM",6.63%
same,"viability, T/C","second compound 9.49 µM, first compound 0.00949 µM",2.23%
same,"viability, T/C","second compound 9.49 µM, first compound 0.03 µM",1.12%
same,"viability, T/C","second compound 30 µM, first compound 94.9 pM",10.7%
same,"viability, T/C","second compound 30 µM, first compound 0.0003 µM",9.94%
same,"viability, T/C","second compound 30 µM, first compound 0.000949 µM",6.33%
same,"viability, T/C","second compound 30 µM, first compound 0.003 µM",3.43%
same,"viability, T/C","second compound 30 µM, first compound 0.00949 µM",1.53%
same,"viability, T/C","second compound 30 µM, first compound 0.03 µM",1.15%
CC(C)n1nc(-c2ccc3oc(N)nc3c2)c2c(N)ncnc21,"viability, T/C",compound 0.000316 µM,95.9% and 105%
same,"viability, T/C",compound 0.001 µM,115% and 107%
same,"viability, T/C",compound 0.00316 µM,99.9% and 114%
same,"viability, T/C",compound 0.01 µM,112% and 130%
same,"viability, T/C",compound 0.0316 µM,127% and 146%
same,"viability, T/C",compound 0.1 µM,94% and 38%
same,IC50,curve of compound,> 100 nM and 84.7 nM
CCCS(=O)(=O)Nc1ccc(F)c(C(=O)c2c[nH]c3ncc(-c4ccc(Cl)cc4)cc23)c1F + CC(C)NCC(C(=O)N1CCN(c2ncnc3c2C(C)CC3O)CC1)c1ccc(Cl)cc1,IC50,[1],7500 nM
same,IC50,[2],6750 nM
same,IC50,[3],2760 nM
same,IC50,[4],< 316 nM
same,IC50,[5],< 316 nM
same,"viability, T/C",[6],90.8%
same,"viability, T/C",[7],98.1%
same,"viability, T/C",[8],103%
same,"viability, T/C",[9],23.8%
same,"viability, T/C","second compound 0.3 µM, first compound 31.6 µM",3.87%
same,"viability, T/C","second compound 0.3 µM, first compound 100 µM",75%
same,"viability, T/C",[10],107%
same,"viability, T/C",[11],114%
same,"viability, T/C",[12],104%
same,"viability, T/C",[13],16.6%
same,"viability, T/C","second compound 0.949 µM, first compound 31.6 µM",1.77%
same,"viability, T/C","second compound 0.949 µM, first compound 100 µM",46.8%
same,"viability, T/C",[14],90.5%
same,"viability, T/C",[15],76.8%
same,"viability, T/C",[16],48%
same,"viability, T/C",[17],7.53%
same,"viability, T/C","second compound 3 µM, first compound 31.6 µM",0.1%
same,"viability, T/C","second compound 3 µM, first compound 100 µM",3.35%
same,"viability, T/C",[18],29.1%
same,"viability, T/C",[19],28.8%
same,"viability, T/C",[20],23.2%
same,"viability, T/C",[21],3.54%
same,"viability, T/C","second compound 9.49 µM, first compound 31.6 µM",0.12%
same,"viability, T/C","second compound 9.49 µM, first compound 100 µM",1.39%
same,"viability, T/C",[22],14.1%
same,"viability, T/C",[23],15.2%
same,"viability, T/C",[24],9.06%
same,"viability, T/C",[25],0.4%
same,"viability, T/C","second compound 30 µM, first compound 31.6 µM",0.13%
same,"viability, T/C","second compound 30 µM, first compound 100 µM",0.3%
Cc1nc(NC(=O)N2CCCC2C(N)=O)sc1-c1ccnc(C(C)(C)C(F)(F)F)c1 (stereo not given),"viability, T/C",compound 0.0316 µM,118% and 104%
same,"viability, T/C",compound 0.1 µM,107% and 117%
same,"viability, T/C",compound 0.316 µM,120% and 111%
same,"viability, T/C",compound 1 µM,105% and 108%
same,"viability, T/C",compound 3.16 µM,106% and 111%
same,"viability, T/C",compound 10 µM,106% and 91.4%
same,IC50,curve of compound,> 10000 nM
CCCS(=O)(=O)Nc1ccc(F)c(C(=O)c2c[nH]c3ncc(-c4ccc(Cl)cc4)cc23)c1F,"viability, T/C",compound 0.316 µM,110% and 87.2%
same,"viability, T/C",compound 1 µM,99.9% and 99.5%
same,"viability, T/C",compound 3.16 µM,90.2% and 81%
same,"viability, T/C",compound 10 µM,16.4% and 24.1%
same,"viability, T/C",compound 31.6 µM,106% and 4.96%
same,"viability, T/C",compound 100 µM,64.9% and 98.7%
Cc1nc(NC(=O)N2CCCC2C(N)=O)sc1-c1ccnc(C(C)(C)C(F)(F)F)c1 (stereo not given) + CC(C)NCC(C(=O)N1CCN(c2ncnc3c2C(C)CC3O)CC1)c1ccc(Cl)cc1,IC50,[1],> 10000 nM
same,IC50,[2],> 10000 nM
same,IC50,[3],2760 nM
same,IC50,[4],< 31.6 nM
same,IC50,[5],< 31.6 nM
same,"viability, T/C","second compound 0.3 µM, first compound 0.0316 µM",101%
same,"viability, T/C","second compound 0.3 µM, first compound 0.1 µM",113%
same,"viability, T/C",[6],127%
same,"viability, T/C",[7],112%
same,"viability, T/C",[8],119%
same,"viability, T/C",[9],83.3%
same,"viability, T/C","second compound 0.949 µM, first compound 0.0316 µM",120%
same,"viability, T/C","second compound 0.949 µM, first compound 0.1 µM",119%
same,"viability, T/C",[10],128%
same,"viability, T/C",[11],119%
same,"viability, T/C",[12],110%
same,"viability, T/C",[13],51.3%
same,"viability, T/C","second compound 3 µM, first compound 0.0316 µM",94.9%
same,"viability, T/C","second compound 3 µM, first compound 0.1 µM",91%
same,"viability, T/C",[14],80%
same,"viability, T/C",[15],52.2%
same,"viability, T/C",[16],59.3%
same,"viability, T/C",[17],37.8%
same,"viability, T/C","second compound 9.49 µM, first compound 0.0316 µM",28%
same,"viability, T/C","second compound 9.49 µM, first compound 0.1 µM",27.4%
same,"viability, T/C",[18],25.1%
same,"viability, T/C",[19],24.9%
same,"viability, T/C",[20],21.5%
same,"viability, T/C",[21],16.1%
same,"viability, T/C","second compound 30 µM, first compound 0.0316 µM",14.2%
same,"viability, T/C","second compound 30 µM, first compound 0.1 µM",14.4%
same,"viability, T/C",[22],11.4%
same,"viability, T/C",[23],11.3%
same,"viability, T/C",[24],10%
same,"viability, T/C",[25],6.48%
